Key:
[1] = target: T1, MDA-MB-231 cell pAxl (Homo sapiens, UniProt P30530); experiment: Inhibitory activity on cell pAxl, MDA-MB-231 cells, hGAS6 stimulation, Western Blot; format: cell-based; details: hGAS6 200 ng/mL
T1 construct: endogenous in cells; host or cells: MDA-MB-231
T1 sequence (P30530 26-894): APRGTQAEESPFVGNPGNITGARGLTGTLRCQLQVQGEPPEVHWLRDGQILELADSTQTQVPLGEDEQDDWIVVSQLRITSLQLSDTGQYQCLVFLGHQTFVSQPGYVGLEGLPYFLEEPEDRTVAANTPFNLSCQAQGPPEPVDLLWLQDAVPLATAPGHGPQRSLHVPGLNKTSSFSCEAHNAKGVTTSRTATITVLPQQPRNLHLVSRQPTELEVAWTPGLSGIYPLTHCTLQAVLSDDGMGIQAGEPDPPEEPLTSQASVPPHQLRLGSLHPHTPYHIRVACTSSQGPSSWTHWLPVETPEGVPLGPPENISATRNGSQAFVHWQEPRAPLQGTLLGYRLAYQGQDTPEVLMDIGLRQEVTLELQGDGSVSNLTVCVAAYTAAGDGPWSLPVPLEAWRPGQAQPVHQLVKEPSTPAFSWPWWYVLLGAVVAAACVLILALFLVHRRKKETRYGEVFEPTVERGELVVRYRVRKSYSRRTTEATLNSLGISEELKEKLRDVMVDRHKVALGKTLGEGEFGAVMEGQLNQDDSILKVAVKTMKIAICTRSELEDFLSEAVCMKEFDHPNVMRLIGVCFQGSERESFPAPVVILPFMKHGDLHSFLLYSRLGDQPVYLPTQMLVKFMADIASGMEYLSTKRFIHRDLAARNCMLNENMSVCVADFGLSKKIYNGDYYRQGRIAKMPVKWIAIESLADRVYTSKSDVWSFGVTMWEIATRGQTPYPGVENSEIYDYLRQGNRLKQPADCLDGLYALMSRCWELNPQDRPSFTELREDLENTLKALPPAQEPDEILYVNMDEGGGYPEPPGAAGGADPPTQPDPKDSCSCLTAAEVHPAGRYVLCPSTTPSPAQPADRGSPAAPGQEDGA
Experimental: MDA-MB-231 is a breast cancer cell.
MDA-MB-231 cells were inoculated to a 6-well plate (containing 10% FBS DMEM medium, […] cells per well) and adherently cultivated at 37° C., and 5% CO2 for 18 hrs. The cells were starved overnight, and then compound solutions with different concentrations were added. Compounds 1 and 2 had final concentrations of 1.1, 3.3 and 10 nM, and the remaining compounds had final concentrations of 1.1, 3.3, 10 and 30 nM. […] There was a medium containing 1‰DMSO in the negative control well. The cells were incubated at 37° C., and 5% CO2 for 60 min, and then hGAS6 (R&D, final concentration: 200 ng/mL) was added to each well. The cells were further incubated for 60 min, and then the total protein of the cells was extracted for Western Blot experiment. Gray analysis was performed on the results with Image J software, and IC50 values were calculated with GraphPad 5.0 software. The inhibitory activities of the compounds on cell pAxl were detected.

[2] = target: T2, H1299 cell pMer (Homo sapiens, UniProt Q12866); experiment: Inhibitory activity on cell pMer, H1299 cells, Human Mer Mab stimulation, Western Blot; format: cell-based; details: Human Mer Mab 200 ng/mL
T2 construct: endogenous in cells; host or cells: H1299
T2 sequence (Q12866 21-999): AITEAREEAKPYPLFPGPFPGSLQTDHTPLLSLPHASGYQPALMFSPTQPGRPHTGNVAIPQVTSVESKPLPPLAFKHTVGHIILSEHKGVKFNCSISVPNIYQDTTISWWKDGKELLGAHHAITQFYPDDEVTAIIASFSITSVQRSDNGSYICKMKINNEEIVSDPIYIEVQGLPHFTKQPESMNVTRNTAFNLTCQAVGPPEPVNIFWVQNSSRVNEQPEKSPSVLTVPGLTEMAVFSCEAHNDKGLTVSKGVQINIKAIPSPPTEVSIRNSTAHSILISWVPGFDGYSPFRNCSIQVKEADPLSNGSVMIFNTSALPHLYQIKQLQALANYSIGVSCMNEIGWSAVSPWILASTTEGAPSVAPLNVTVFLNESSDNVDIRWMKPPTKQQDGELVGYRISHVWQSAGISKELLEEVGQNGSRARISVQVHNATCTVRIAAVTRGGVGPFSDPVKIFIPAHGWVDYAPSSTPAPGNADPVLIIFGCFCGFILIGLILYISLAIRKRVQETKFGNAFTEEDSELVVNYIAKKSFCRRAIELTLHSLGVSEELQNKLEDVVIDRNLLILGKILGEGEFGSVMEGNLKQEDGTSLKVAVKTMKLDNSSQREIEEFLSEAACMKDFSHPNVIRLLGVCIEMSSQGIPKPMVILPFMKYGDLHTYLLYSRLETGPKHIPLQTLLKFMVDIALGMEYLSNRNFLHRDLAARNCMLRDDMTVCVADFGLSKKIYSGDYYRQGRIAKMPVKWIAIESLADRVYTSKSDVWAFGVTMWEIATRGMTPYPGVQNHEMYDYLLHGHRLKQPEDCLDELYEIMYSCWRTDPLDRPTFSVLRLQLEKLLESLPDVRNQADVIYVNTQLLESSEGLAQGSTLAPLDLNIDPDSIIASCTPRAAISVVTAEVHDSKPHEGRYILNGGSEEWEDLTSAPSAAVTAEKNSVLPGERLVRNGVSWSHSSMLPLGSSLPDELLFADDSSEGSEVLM
Experimental: H1299 is anon-small cell lung cancer cell.
H1299 cells were inoculated to a 6-well plate (containing 10% FBS 1640 medium, 5×10^5 cells per well) and adherently cultivated at 37° C., and 5% CO2 for 18 hrs. The cells were starved overnight, and then compound solutions with different concentrations were added. The compounds had final concentrations of 0.35, 1.1, 3.3 and 10 nM. […] There was a medium containing 1‰DMSO in the negative control well. The cells were incubated at 37° C., and 5% CO2 for 60 min, and then Human Mer Mab (R&D, final concentration: 200 ng/mL) was added to each well. The cells were further incubated for 60 min, and then the total protein of the cells was extracted for Western Blot experiment. Gray analysis was performed on the results with Image J software, and IC50 values were calculated with GraphPad 5.0 software. The inhibitory activities of the compounds on cell pMer were detected.

IC50 [1] [nM]	IC50 [2] [nM]	Compound
< 1.1	1.1 to 3.3	COc1cc2nccc(Oc3ccc(NC(=O)c4cn(CC5CCOCC5)cc(-c5ccc(C)cc5)c4=O)nc3)c2cc1OC [Compound 1, N-(5-((6,7-dimethoxyquinolin-4-yl)oxy)pyridin-2-yl)-4-oxo-1-((tetrahydro-2H-pyran-4-yl)methyl)-5-(p-tolyl)-1,4-dihydropyridin-3-carboxamide]
< 1.1	1.1	COc1cc2nccc(Oc3ccc(NC(=O)c4nn(CC5CCOCC5)cc(-c5ccc(C)cc5)c4=O)nc3)c2cc1OC [Compound 2, N-(5-((6,7-dimethoxyquinolin-4-yl)oxy)pyridin-2-yl)-4-oxo-1-((tetrahydro-2H-pyran-4-yl)methyl)-5-(p-tolyl)-1,4-dihydropyridazin-3-carboxamide]
< 1.1	1.1	COc1cc2nccc(Oc3cnc(NC(=O)c4cn(CC5CCOCC5)cc(-c5ccc(C)cc5)c4=O)nc3)c2cc1OC [Compound 4, N-(5-((6,7-dimethoxyquinolin-4-yl)oxy)pyrimidin-2-yl)-4-oxo-1-((tetrahydro-2H-pyran-4-yl)methyl)-5-(p-tolyl)-1,4-dihydropyridin-3-carboxamide]
≤ 1.1		COc1cc2nccc(Oc3ccc(NC(=O)c4cn(CC5CCS(=O)(=O)CC5)cc(-c5ccc(C)cc5)c4=O)nc3)c2cc1OC [Compound 7, N-(5-((6,7-dimethoxyquinolin-4-yl)oxy)pyridin-2-yl)-1-((1,1-dioxotetrahydro-2H-thiopyran-4-yl)methyl)-4-oxo-5-(p-tolyl)-1,4-dihydropyridin-3-carboxamide]
≤ 1		COc1cc2nccc(Oc3ccc(NC(=O)c4cn(CC5CC[S+]([O-])CC5)cc(-c5ccc(C)cc5)c4=O)nc3)c2cc1OC (stereo not shown) [Compound 8, N-(5-((6,7-dimethoxyquinolin-4-yl)oxy)pyridin-2-yl)-1-((1-oxotetrahydro-2H-thiopyran-4-yl)methyl)-4-oxo-5-(p-tolyl)-1,4-dihydropyridin-3-carboxamide]
< 10	1.1 to 3.3	COc1cc2nccc(Oc3ccc(NC(=O)c4cn(CC5CCSCC5)cc(-c5ccc(C)cc5)c4=O)nc3)c2cc1OC [Compound 9, N-(5-((6,7-dimethoxyquinolin-4-yl)oxy)pyridin-2-yl)-4-oxo-1-((tetrahydro-2H-thiopyran-4-yl)methyl)-5-(p-tolyl)-1,4-dihydropyridin-3-carboxamide]
≤ 3.1		COc1cc2nccc(Oc3ccc(NC(=O)c4cc(-c5ccc(C)cc5)cn(CC5CCOCC5)c4=O)nc3)c2cc1OC [Compound 13, N-(5-((6,7-dimethoxyquinolin-4-yl)oxy)pyridin 2yl)-2-oxo-1-((tetrahydro-2H-pyran-4-yl)methyl)-5-(p-tolyl)-1,2-dihydropyridin-3-carboxamide]
< 1.1	1.1	COc1cc2nccc(Oc3cnc(NC(=O)c4nn(CC5CCOCC5)cc(-c5ccc(C)cc5)c4=O)nc3)c2cc1OC [Compound 16, N-(5-((6,7-dimethoxyquinolin-4-yl)oxy)pyrimidin-2-yl)-4-oxo-1-((tetrahydro-2H-pyran-4-yl)methyl)-5-(p-tolyl)-1,4-dihydropyridazin-3-carboxamide]
< 1.1	< 0.35	COc1cc2nccc(Oc3ccc(NC(=O)c4nn(C5CCOCC5)cc(-c5ccc(C)cc5)c4=O)nc3)c2cc1OC [Compound 17, N-(5-((6,7-dimethoxyquinolin-4-yl)oxy)pyridin-2-yl)-4-oxo-1-(tetrahydro-2H-pyran-4-yl)-5-(p-tolyl)-1,4-dihydropyridazin-3-carboxamide]
< 10		COc1cc2nccc(Oc3ccc(NC(=O)c4cn(CC5CCOCC5)cc(-c5ccc(C)cc5)c4=O)nn3)c2cc1OC [Compound 24, N-(6-((6,7-dimethoxyquinolin-4-yl)oxy)pyridazin-3-yl)-4-oxo-1-((tetrahydro-2H-pyran-4-yl)methyl)-5-(p-tolyl)-1,4-dihydropyridin-3-carboxamide]
≤ 503		COc1cc2nccc(Oc3ccc(NC(=O)c4cn(CC5CCOCC5)c5ccccc5c4=O)nc3)c2cc1OC [Compound 25, N-(5-((6,7-dimethoxyquinolin-4-yl)oxy)pyridin-2-yl)-4-oxo-1-((tetrahydro-2H-pyran-4-yl)methyl)-1,4-dihydroquinolin-3-carboxamide]
< 3.3		COc1cc2nccc(Oc3ccc(NC(=O)c4cc(CC5CCOCC5)cn(-c5ccc(C)cc5)c4=O)nc3)c2cc1OC [Compound 26, N-(5-((6,7-dimethoxyquinolin-4-yl)oxy)pyridin-2-yl)-oxo-5-((tetrahydro-2H-pyran-4-yl)methyl)-1-(p-tolyl)-1,2-dihydropyridin-3-carboxamide]
	< 1.1	COc1cc2nccc(Oc3ccc(NC(=O)c4cn(C5CCOCC5)cc(-c5ccc(F)cc5)c4=O)nc3)c2cc1OC [Compound 27, N-(5-((6,7-dimethoxyquinolin-4-yl)oxy)pyridin-2-yl)-5-(4-fluorophenyl)-4-oxo-1-(tetrahydro-2H-pyran-4-yl)-1,4-dihydropyridin-3-carboxamide]
	1.1	COc1cc2nccc(Oc3ccc(NC(=O)c4nn(C5CCOCC5)cc(-c5ccc(C)cc5)c4=O)cc3F)c2cc1OC [Compound 28]
	3.3 to 10	COc1cc2nccc(Oc3cnc(NC(=O)c4cn(C5CCOCC5)cc(-c5ccc(F)cc5)c4=O)nc3)c2cc1OC [Compound 31, N-(5-((6,7-dimethoxyquinolin-4-yl)oxy)pyrimidin-2-yl)-5-(4-fluorophenyl)-4-oxo-1-(tetrahydro-2H-pyran-4-yl)-1,4-dihydropyridin-3-carboxamide]
	1.1	COc1cc2nccc(Oc3ccc(NC(=O)c4cc(CC5CCOCC5)cn(-c5ccc(F)cc5)c4=O)nc3)c2cc1OC [Compound 32, N-(5-((6,7-dimethoxyquinolin-4-yl)oxy)pyridin-2-yl)-1-(4-fluorophenyl)-2-oxo-5-((tetrahydro-2H-pyran-4-yl)methy 1)-1,2-dihydropyridin-3-carboxamide]

Source: US20210177828A1, “TAM FAMILY KINASE /AND CSF1R KINASE INHIBITOR AND USE THEREOF” (Nanjing Transthera Biosciences Co., Ltd., priority 2018, published 2021)
